US20240343735A1, “Hydrochloride Salt of Inupadenant, Pharmaceutical Compositions and Methods of Use Thereof” (iTeos Belgium SA, priority 2021, published 2024)
Blank lines part the entries; values can stand above or below the molecule they belong to.

How the values were obtained:
Type in all cases: physicochemical
[1] = 7-day stability assessment of amorphous inupadenant hydrochloride
Method: A 7-day stability assessment of amorphous inupadenant hydrochloride was carried out as follows: (1) 20 mg amorphous inupadenant was added to 3×2 mL glass vials; (2) the samples were then stored under the following conditions—(i) 40° C./75% RH—open vial, (ii) 80° C.—closed vial, and (iii) ambient light—open vial; (3) Solids were stored for 1 week under the above conditions with XRPD analysis (Example 1, XRPD Method A) and HPLC purity analysis (Example 1, HPLC Method A) being carried out post-storage.

[2] = 7-day stability assessment of Form 2 inupadenant hydrochloride
[3] = Dynamic vapor sorption (DVS)
Method: 10-20 mg of sample was placed into a mesh vapor sorption balance pan and loaded into a DVS Intrinsic or Advantage dynamic vapor sorption balance by Surface Measurement Systems. The sample was subjected to a ramping profile from 40-90% relative humidity (RH) at 10% increments, maintaining the sample at each step until a stable weight had been achieved (dm/dt 0.004%, minimum step length 30 minutes, maximum step length 500 minutes) at 25° C. After completion of the sorption cycle, the sample was dried using the same procedure to 0% RH and then a second sorption cycle back to 40% RH. Two cycles were performed. The weight change during the sorption/desorption cycles were plotted, allowing for the hygroscopic nature of the sample to be determined. XRPD analysis (XRPD Method A) was then carried out on any solid retained.
DVS isotherms were collected using a Surface Measurement Systems Ltd. DVS-1 No Video, equipment #2126. The sample was loaded into balance pan, typically 10-30 mg, and equilibrated at 0% RH. After the material has dried the RH was increased with 10% per step for 1 hour per increment, ending at 95% RH. After completion of the sorption cycle, the sample was dried using the same method. The software used for data collection is DVSWin v3.01 No Video. Data analysis was performed using DVS Standard Analysis Suite v6.3.0 (Standard). […]

[4] = Salt disproportionation study in unbuffered water; settings: ambient temperature, 24 hours
[5] = Dissolution rate assessment in pH 1.2, 0.2 M HCl/KCl buffer; settings: for Conc. mg/mL in pH 1.2 HCl/KCl: ca. 37° C.
Method: 1000 μL of each sample was drawn from the slurry layer by automated pipette at 15, 30, 60, 120, 240 and 1440 minute timepoints. • These aliquots were spun down through a centrifuge filter, diluted 300 μl:300 μl with the method specified diluent and placed in total recovery vials. The solids were retained for XRPD analysis. • The solubility of the material in the buffer was determined by HPLC analysis (duplicate injections) (Example 1, HPLC Method C) against verified reference solutions of the source material at known concentrations.

[6] = Solubility assessment in solvents; settings: 1,4-dioxane, water, tert-butyl alcohol, THF, ethyl acetate, acetone, methanol, DCM; even at 20 mg/mL with gentle heating
Method: 0.5-1 mL of solvent was added to each vial and the samples were manually shaken at ambient temperature. […] The solvents assessed in this solubility study were 1,4-dioxane, water, tert-butyl alcohol, THF, ethyl acetate, acetone, methanol, and DCM.

[7] = 7 days, 40° C. + 75% RH, open vial
[8] = 7 days, ambient light, open vial

HPLC (Purity, % area) [1, 7]: 99.64 % area
XRPD Analysis [1, 7]: Form 2 inupadenant
HPLC (Purity, % area) ([1]; 7 days, 80° C., closed vial): 99.66 % area
XRPD Analysis ([1]; 7 days, 80° C., closed vial): Form 2 inupadenant
HPLC (Purity, % area) [1, 8]: 99.66 % area
XRPD Analysis [1, 8]: Form 2 inupadenant
HPLC (Purity, % area) ([1]; input material): 99.61 % area
XRPD Analysis ([1]; input material): Predominantly amorphous
Compound: C[S@+]([O-])CCOc1cc(N2CCN(CCn3c(=O)sc4c3nc(N)n3nc(-c5ccco5)nc43)CC2)c(F)cc1F.Cl [amorphous inupadenant hydrochloride]
change of solid form (XRPD) after 7-day stability assessment ([1]; all stability conditions): crystallized into Form 2 inupadenant hydrochloride

HPLC (Purity, % area) [2, 7]: 99.64 % area
XRPD Analysis [2, 7]: Form 2 inupadenant
HPLC (Purity, % area) ([2]; 7 days, 80° C., closed vial): 99.66 % area
XRPD Analysis ([2]; 7 days, 80° C., closed vial): Form 2 inupadenant
HPLC (Purity, % area) [2, 8]: 99.66 % area
XRPD Analysis [2, 8]: Form 2 inupadenant
change of solid form (XRPD) after 7-day stability assessment ([2]; all stability conditions): no changes to the solid form
change of solid purity (HPLC) after 7-day stability assessment ([2]; all stability conditions): no changes to solid purity
HPLC (Purity, % area) ([2]; input material): 99.61 % area
XRPD Analysis ([2]; input material): Form 2 inupadenant
change of solid purity (HPLC) after 7-day stability assessment ([1]; all stability conditions): no changes to solid purity
DVS total mass increase ([3]; at 90% RH, 25° C., DVS Method A): 3.8 wt. %
solid form (XRPD) after slurrying in water [4]: no changes in the solid form
solubility in pH 1.2 0.2 M HCl/KCl buffer ([5]; 37° C., overnight): low
Conc. mg/mL in pH 1.2 HCl/KCl ([5]; 15 min): 0.0010 mg/mL
Conc. mg/mL in pH 1.2 HCl/KCl ([5]; 30 min): 0.0013 mg/mL
Conc. mg/mL in pH 1.2 HCl/KCl ([5]; 60 min): 0.0014 mg/mL
Conc. mg/mL in pH 1.2 HCl/KCl ([5]; 120 min): 0.0023 mg/mL
Conc. mg/mL in pH 1.2 HCl/KCl ([5]; 240 min): 0.0029 mg/mL
Conc. mg/mL in pH 1.2 HCl/KCl ([5]; 1440 min): 0.0035 mg/mL
solubility in solvent systems [6]: insoluble
Compound: C[S@+]([O-])CCOc1cc(N2CCN(CCn3c(=O)sc4c3nc(N)n3nc(-c5ccco5)nc43)CC2)c(F)cc1F.Cl.O [Form 2 inupadenant hydrochloride]
XRPD of solids recovered from each timepoint ([5]; pH 1.2 HCl/KCl buffer): consistent with Form 2 inupadenant hydrochloride

DVS total mass uptake ([3]; at 95% RH, DVS Method B): 5 wt. %
Compound: C[S@+]([O-])CCOc1cc(N2CCN(CCn3c(=O)sc4c3nc(N)n3nc(-c5ccco5)nc43)CC2)c(F)cc1F.Cl [Form 1 inupadenant hydrochloride]
